Experimental data from US20050265954A1, “Novel association, a method of its preparation and its uses” (ADAMED, Sp. z.o.o., priority 2004, published 2005).

Columns and labels:
[1] = Light absorption spectra and complex formation in phosphate buffer; format: physicochemical; settings: phosphate buffer 0.05M, pH 8.5, chlorin p6 1.9·10^−5M
Source text: The absorption spectra of the above-obtained associations of polyvinylpyrrolidone with chlorin p6 in the phosphate buffer (0.05M, pH 8.5) are shown on FIG. 1 for the following chlorin p6/polyvinylpyrrolidone ratios (by weight): (1) 1:1; (2) 1:15; (3) 1:40; (4) 1:200; and (5) 1:1000. The concentration of chlorin p6 was 1.9·10^−5M in all investigated solutions.
The chlorin p6-polyvinylpyrrolidone complex has an absorption maximum in the long-wave region of visible light, and this maximum is shifted towards longer wavelengths (664 nm) compared to free chlorin p6, which has an absorption maximum at 656 nm. Therefore, the use of the association according to the invention as a photosensitizer allows for deeper penetration of radiation into biological tissues, which allows for treating solid tumors and/or deeply located lesions.
Formation of the complex of polyvinylpyrrolidone with chlorin p6 results in a series of changes in the absorption spectrum. […]
FIG. 2 presents the experimentally obtained percent of red shift of the absorption maximum of the complex in relation to the content of polyvinylpyrrolidone. […] The spectra were recorded for a series of the solutions of the complex in the phosphate buffer (pH 8.5) at the chlorin p6 concentration of 1.9·10^−5M.

Pliss' lymphosarcoma = experiment: Tumor necrosis after photodynamic therapy, Pliss' lymphosarcoma; format: in vivo; settings: rats, photosensitizer 2.5 mg/kg, laser 660 nm, 50 J/cm^2
Protocol: The studies were performed on white not-inbred laboratory rats having subcutaneously implanted tumors (Pliss' lymphosarcoma). The dose of the administered photosensitizer was 2.5 mg/kg. The necrosis area was estimated based on the functional condition of the tumor's vascular system following laser irradiation (660 nm) at the radiation dose of 50 J/cm^2, when accumulation of the photosensitizer was the highest.
After 24 hours since the photodynamic therapy, the animals were intravenously given a solution of Evans blue in physiologic saline at the dose of 1.0 ml/100 g of body weight.

[2] = test system: Walker-256 carcinosarcoma; experiment: Inhibition of neoplasm's growth, Walker-256 carcinosarcoma; format: in vivo, rats; settings: 2.5 mg/kg intraperitoneally, 200 J/cm^2
Protocol: The use of the association according to the invention allows to achieve a high level of the tumor growth inhibition. In order to confirm this effect, the studies were performed using white rats with implanted neoplasms (Walker-256 carcinosarcoma). A solution of the photosensitizer was administered intraperitoneally at doses of 2.5 mg/kg and the tumor was […] at the radiation dose of 200 J/cm^2. The observation was continued for 21 days following the therapy. FIG. 3 and Table 7 show the dynamics of changes of the absolute rate of the tumor growth, resulting from the use of the association according to the invention (1:15) as well as free chlorin p6. The control group consisted of untreated animals.

[3] = reference standard; cited from earlier work

| SMILES | Absorption maximum in the long-wave region of visible light [1] [nm] | Depth of necrosis (Pliss' lymphosarcoma) [mm] | Necrosis area (Pliss' lymphosarcoma) [%] | Neoplasm's growth ([2]; 3 days after photodynamic therapy) [%] | Neoplasm's growth ([2]; 7 days after photodynamic therapy) [%] | Neoplasm's growth ([2]; 10 days after photodynamic therapy) [%] | Neoplasm's growth ([2]; 14 days after photodynamic therapy) [%] | Neoplasm's growth ([2]; 21 days after photodynamic therapy) [%] | Resumption of tumor growth following the therapy ([2]; observation 21 days) | Quantum yield of the singlet-state oxygen (φλ) of the reference solution [3] |
| --- | --- | --- | --- | --- | --- | --- | --- | --- | --- | --- |
| C=Cc1c(C)c2cc3nc(c(C(=O)O)c4[nH]c(cc5nc(cc1[nH]2)C(C)=C5CC)c(C)c4C(=O)O)[C@@H](CCC(=O)O)[C@@H]3C (relative stereo) [chlorin p6, 13-carboxy-17-[2-carboxyethyl]-15-carboxy-17,18-trans-dihydro-3-vinyl-8-ethyl-2,7,12,18-tetramethylporphyrin] | 656 | 7 | 46.3 | 0 | 0 | 3 | 8 | 12 | the tumor growth resumes after 10 days |  |
| O=S(=O)([O-])c1ccc(-c2c3nc(c(-c4ccc(S(=O)(=O)[O-])cc4)c4ccc([nH]4)c(-c4ccc(S(=O)(=O)[O-])cc4)c4nc(c(-c5ccc(S(=O)(=O)[O-])cc5)c5ccc2[nH]5)C=C4)C=C3)cc1.[Na+].[Na+].[Na+].[Na+] [TSFP, tetrasodium phenylporphyrintetrasulfonate] |  |  |  |  |  |  |  |  |  | 0.7 |
